Converted amounts (≈) assume the structure as drawn. Like-named read-outs stand apart in the source and are kept apart here. Where only a bound is given, the exact number is not on record here.

For one data set, the system named is Mtb WT. Nature of the data set: microbe, parasite or virus in culture. The class given is cell-based, Mycobacterium tuberculosis. Particulars: for MIC: Mycobacterium tuberculosis.
For a further data set, the system named is Mtb H37Rv. Briefly: microbe, parasite or virus in culture. The class given is cell-based. Particulars: Mycobacterium tuberculosis, 168 h, read-out: MIC 7H9/ADC/Tw.
The next data set concerns PanE KPR from E. coli. Conditions: literature values; cited from earlier work.
A further data set relates to CC(C)(CO)C(=O)C(=O)O. Briefly: purified protein, by the assay type.

In the case of `CC1(C)S[C@@H]2[C@H](NC(=O)[C@H](N)c3ccccc3)C(=O)N2[C@H]1C(=O)O` [Ampicillin], in the data set on Mtb WT, the “MIC WT” value was more than 50 µM. In addition, the results for the MIC in the data set with Mtb WT and in the data set on Mtb WT (read-out: MIC WT) were 2.3 µM (≈ 0.804 µg/mL) and more than 50 µM, respectively. Take `COc1nc2ccc(Br)cc2cc1[C@@H](c1ccccc1)[C@@](O)(CCN(C)C)c1cccc2ccccc12` [Bedaquiline]: the MIC in the data set with Mtb WT (read-out: MIC WT) came out at 0.31 µM (≈ 0.172 µg/mL). On the same count and under the same terms, to `CC(C)/N=c1\cc2n(-c3ccc(Cl)cc3)c3ccccc3nc-2cc1Nc1ccc(Cl)cc1` [Clofazimine] belongs 0.16 µM (≈ 0.0757 µg/mL); to `N[C@@H]1CON=C1O` [D-Cycloserine], 4.7 µM (≈ 0.48 µg/mL). In the case of `N[C@H](Cc1ccccc1)C(=O)O` [D-Phe, D-phenylalanine], the MIC in the data set with Mtb H37Rv was more than 310 µM.

For the compound `C[C@]1(COc2ccc(N3CCC(Oc4ccc(OC(F)(F)F)cc4)CC3)cc2)Cn2cc([N+](=O)[O-])nc2O1` [Delamanid], in the data set on Mtb WT (read-out: MIC WT), the MIC was determined as 0.0031 µM (≈ 0.00166 µg/mL). Regarding `CC[C@@H](CO)NCCN[C@@H](CC)CO` [Ethambutol], the MIC with Mtb WT (read-out: MIC WT) came out at 1.6 µM (≈ 0.327 µg/mL). The same measure, in the same setting: to `CCc1cc(C(N)=S)ccn1` [Ethionamide] belongs 0.3 µM (≈ 0.0499 µg/mL); to `C[C@@H](O)[C@H]1C(=O)N2C(C(=O)O)=C(SCCN=CN)C[C@H]12` [Imipenem], 0.39 µM (≈ 0.117 µg/mL). Same read-out and setting: in the case of `NNC(=O)c1ccncc1` [Isoniazid] it was 0.31 µM (≈ 0.0425 µg/mL); in that of `CC(=O)NC[C@H]1CN(c2ccc(N3CCOCC3)c(F)c2)C(=O)O1` [Linezolid], 0.78 µM (≈ 0.263 µg/mL); in that of `C[C@@H](O)[C@H]1C(=O)N2C(C(=O)O)=C(S[C@@H]3CN[C@H](C(=O)N(C)C)C3)[C@H](C)[C@H]12` [Meropenem], 1.2 µM (≈ 0.46 µg/mL). Still for that read-out and setting: to `COc1c(N2C[C@@H]3CCCN[C@@H]3C2)c(F)cc2c(=O)c(C(=O)O)cn(C3CC3)c12` [Moxifloxacin] belongs 0.12 µM (≈ 0.0482 µg/mL). Take `CO[C@H]1/C=C/O[C@@]2(C)Oc3c(C)c(O)c4c(O)c(c(/C=N/N5CCN(C)CC5)c(O)c4c3C2=O)NC(=O)/C(C)=C\C=C\[C@H](C)[C@H](O)[C@@H](C)[C@@H](O)[C@@H](C)[C@H](OC(C)=O)[C@@H]1C` [Rifampicin]: in the data set on Mtb WT (read-out: MIC WT), the MIC came out at 0.012 µM (≈ 0.00988 µg/mL). On the same count and under the same terms, to `[H]/N=C(/N)N[C@H]1[C@H](O)[C@@H](O)[C@H](O[C@@H]2O[C@@H](C)[C@](O)(C=O)[C@H]2O[C@@H]2O[C@@H](CO)[C@H](O)[C@@H](O)[C@@H]2NC)[C@@H](N/C(N)=N\[H])[C@@H]1O` [Streptomycin] belongs 0.46 µM (≈ 0.268 µg/mL); to `CN[C@H](CC(C)C)C(=O)N[C@H]1C(=O)N[C@@H](CC(N)=O)C(=O)N[C@H]2C(=O)N[C@H]3C(=O)N[C@H](C(=O)N[C@H](C(=O)O)c4cc(O)cc(O)c4-c4cc3ccc4O)[C@H](O)c3ccc(c(Cl)c3)Oc3cc2cc(c3O[C@@H]2O[C@H](CO)[C@@H](O)[C@H](O)[C@H]2O[C@H]2C[C@](C)(N)[C@H](O)[C@H](C)O2)Oc2ccc(cc2Cl)[C@H]1O` [Vancomycin], 5 µM (≈ 7.25 µg/mL).

In general, Km refers to the concentration of substrate that gives half-maximal velocity. With `CC(C)(CO)C(=O)C(=O)O` [ketopantoate], in the data set on PanE KPR from E. coli, the Km is 30 to 120 µM. Take `Nc1ccc(C(=O)O)c(O)c1` [p-Aminosalicylic acid]: in the data set with Mtb WT (read-out: MIC WT), the MIC was 0.3 µM (≈ 0.0459 µg/mL). For Capreomycin, the “MIC WT” value against Mtb WT turned out to be 0.78 µM. On to “MtbPanG (Rv3603c) (Mycobacterium tuberculosis H37Rv)”, for which the Km in the data set with CC(C)(CO)C(=O)C(=O)O is 24 ± 2 µM.

Take NADPH: the Km in the data set with PanE KPR from E. coli is 4 to 7 µM.
